The values that follow come from patent US7192981B2, “3,4-dihydroxyhydrocinnamic acid derivative” (Bionutrigen Co., Ltd., priority 2005, dated 2007).

For assay [1], the system named is Akt/PKB. In words: Akt/PKB phosphorylation in adipocytes, western blot. To be noted: 500 μM, 4 h. The assay is classed as cell-based, rat. Here is the method: Proteins were separated by 10% SDS-PAGE and transferred to a polyvinyl difluoride membrane (Amersham Pharmacia Biotech). After transfer, the membranes were blocked with 5% skim milk in Tris-buffered saline with Tween 20 (TBST; 0.05% Tween 20, 200 mM Tris-HCl, 500 mM NaCl, pH 7.5) for 1 h at room temperature. The membranes were incubated with anti-IR-β, anti-IRS-1, anti-phosphotyrosine, or anti-p85 PI3-kinase (Upstate Biotech); anti-Akt/PKB or anti-phospho-Akt/PKB (Cell Signalling Technology, Beverly, Mass.); anti-GLUT4 (Santa Cruz Biotechnology Inc., Santa Cruz, Calif.); or anti-β actin (Sigma) antibody in 5% bovine serum albumin in TBST for 1 h at room temperature or overnight at 4° C. After washing, the membranes were incubated with secondary antibodies labeled with horseradish peroxidase (HRP) in 5% skim milk in TBST for 1 h. The membranes were washed and the immunoreactive proteins were detected with an enhanced chemoluminescence western blot detection kit (Amersham Pharmacia Biotech).
For orientation: A western blot detects proteins with antibodies after separation by electrophoresis.

Assay [2] addresses T1, IR-β (Mus musculus, UniProt P15208).
T1 construct: from tissue; host or cells: fat (adipose) tissue of STZ-induced diabetic C57BL/6 mice and ob/ob mice
In words: Phosphorylation of IR-β in adipose tissue of treated diabetic mice. It is filed as in vivo. The conditions noted are these: 2 weeks of DHH105 treatment. Here is the method: (§1) Adipocytes treated with DHH105 for 2 h or insulin for 10 min were homogenized in 5 ml lysis buffer (20 mM Tris, pH 7.4, 1% SDS, 10% glycerol, 150 mM NaCl, 2 mM EDTA, 20 mM NaF, 1 mM NaVO4, 2 mM sodium pyrophosphate, protease inhibitor cocktail, and phosphatase inhibitor cocktail) with a teflon pestle (15 strokes). Homogenized adipocytes were sonicated for 3 min and solubilized for 30 min. The homogenate was centrifuged at 3,000 g for 10 min at 4° C. The protein concentration of the lysate was determined by the Bradford method. After dilution (1 μg/μl protein concentration), the lysates were incubated with anti-insulin receptor-β (IR-β) antibody (Upstate Biotech, Charlottesville, Va.) or anti-IRS-1 antibody (Upstate Biotech) overnight at 4° C. Protein A Sepharose beads (100 μl, Amersham Pharmacia Biotech) were added and the mixture was gently rocked for 2 h at 4° C. […] The membranes were washed and the immunoreactive proteins were detected with an enhanced chemoluminescence western blot detection kit (Amersham Pharmacia Biotech). To examine whether in vivo treatment of STZ-induced diabetic C57BL/6 mice or ob/ob mice with DHH105 also increases phosphorylation of IR-β, and IRS-1, fat tissue was removed from the mice after 2 weeks of DHH105 treatment and phosphorylation of IR-β and IRS-1 was measured by immunoprecipitation and western blot.

Assay [3] has as its system IRS-1. In words: Phosphorylation of IRS-1 in adipose tissue of treated diabetic mice. It is filed as in vivo, mouse. To be noted: 2 weeks of DHH105 treatment. Here is the method: as §1
The mark [4] stands for this setting: STZ-induced diabetic C57BL/6 mice.

T1 sequence (P15208 753-1372 limits assumed): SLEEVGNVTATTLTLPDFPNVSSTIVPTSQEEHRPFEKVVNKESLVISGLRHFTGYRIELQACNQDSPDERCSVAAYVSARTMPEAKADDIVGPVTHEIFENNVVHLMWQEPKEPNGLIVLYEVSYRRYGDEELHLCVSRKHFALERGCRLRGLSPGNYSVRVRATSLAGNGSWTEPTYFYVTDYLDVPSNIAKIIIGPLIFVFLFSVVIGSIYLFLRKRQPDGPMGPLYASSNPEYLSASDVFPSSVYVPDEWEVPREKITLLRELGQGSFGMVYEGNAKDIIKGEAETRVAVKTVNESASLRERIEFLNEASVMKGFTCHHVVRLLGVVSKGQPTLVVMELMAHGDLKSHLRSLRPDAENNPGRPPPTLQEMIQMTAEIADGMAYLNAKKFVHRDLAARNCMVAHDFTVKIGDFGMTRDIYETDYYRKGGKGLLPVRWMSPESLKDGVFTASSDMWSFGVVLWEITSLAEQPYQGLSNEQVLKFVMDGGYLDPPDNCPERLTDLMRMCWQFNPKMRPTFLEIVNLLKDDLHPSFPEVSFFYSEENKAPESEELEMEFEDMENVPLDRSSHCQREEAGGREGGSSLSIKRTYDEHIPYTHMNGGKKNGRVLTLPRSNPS
T1 sequence (P15208 28-748 limits assumed): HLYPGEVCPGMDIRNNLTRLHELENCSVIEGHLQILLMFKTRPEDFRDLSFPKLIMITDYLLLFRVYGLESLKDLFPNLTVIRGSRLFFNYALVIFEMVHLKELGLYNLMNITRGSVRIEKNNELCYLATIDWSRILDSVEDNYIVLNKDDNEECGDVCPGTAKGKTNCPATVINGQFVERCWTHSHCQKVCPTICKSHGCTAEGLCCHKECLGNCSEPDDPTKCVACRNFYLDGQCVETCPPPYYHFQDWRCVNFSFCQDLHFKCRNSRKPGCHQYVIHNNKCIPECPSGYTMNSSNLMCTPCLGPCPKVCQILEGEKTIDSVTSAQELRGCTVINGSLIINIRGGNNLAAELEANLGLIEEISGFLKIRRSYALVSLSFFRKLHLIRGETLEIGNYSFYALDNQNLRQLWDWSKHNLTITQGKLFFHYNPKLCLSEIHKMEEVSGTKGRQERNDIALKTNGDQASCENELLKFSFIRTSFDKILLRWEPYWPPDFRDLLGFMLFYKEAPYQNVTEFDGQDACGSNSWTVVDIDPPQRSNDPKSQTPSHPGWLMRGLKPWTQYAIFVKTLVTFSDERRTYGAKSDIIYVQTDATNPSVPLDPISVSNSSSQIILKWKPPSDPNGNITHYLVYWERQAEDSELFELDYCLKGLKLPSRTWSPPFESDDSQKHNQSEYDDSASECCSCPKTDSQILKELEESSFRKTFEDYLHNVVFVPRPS

Consider `O=C(CCc1ccc(O)c(O)c1)OCc1cccc2ccccc12` [DHH105, 3,4-dihydroxyhydrocinnamic acid naphthalene methyl ester], for which the “amount of Akt/PKB protein” value in assay [1] is on record as “did not change”. For the same compound, the “phosphorylated Akt/PKB” value in assay [1] (vs untreated control) is “significantly increased”. Besides, the “phosphorylation of IR-β in adipose tissue” value in assay [2] (setting [4]) and in assay [2] (ob/ob mice) was “increased” each time. Moreover, the “phosphorylation of IRS-1 in adipose tissue” value in assay [3] (setting [4]) and in assay [3] (ob/ob mice) was “increased” in each case.
